Data taken from ChEMBL document CHEMBL1201862, “PubChem BioAssay data set” (2004).
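Each compound was tested at five concentrations against cells in 96-well plates for 48 hours. GI50: concentration for 50% inhibition of growth.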 The source made the active and inactive calls. Rule as the data show it: active = GI50 up to about 1.1 µM and inactive = higher.

Experiments:
Test in all cases: inhibition of tumour cell growth, NCI panel, 48 h
HOP-62 = test system: HOP-62
EKVX = test system: EKVX
RPMI-8226 = test system: RPMI-8226
HCT-116 = test system: HCT-116
LOX IMVI = test system: LOX IMVI
SW-620 = test system: SW-620
HCC 2998 = test system: HCC 2998
NCI-H23 = test system: NCI-H23
Malme-3M = test system: Malme-3M
M14 = test system: M14
OVCAR-3 = test system: OVCAR-3
SR = test system: SR
IGROV-1 = test system: IGROV-1
CAKI-1 = test system: CAKI-1
SF-295 = test system: SF-295
MDA-N = test system: MDA-N
SK-MEL-2 = test system: SK-MEL-2
COLO 205 = test system: COLO 205
SK-OV-3 = test system: SK-OV-3
SNB-75 = test system: SNB-75
HT-29 = test system: HT-29
A498 = test system: A498
MOLT-4 = test system: MOLT-4
A549 = test system: A549
SK-MEL-28 = test system: SK-MEL-28
BT-549 = test system: BT-549
TK-10 = test system: TK-10
U-251 = test system: U-251
HCT-15 = test system: HCT-15
UACC-257 = test system: UACC-257
CCRF-CEM = test system: CCRF-CEM
RXF 393 = test system: RXF 393
SN12C = test system: SN12C
KM12 = test system: KM12
NCI-H460 = test system: NCI-H460
MDA-MB-435 = test system: MDA-MB-435
SNB-19 = test system: SNB-19
OVCAR-4 = test system: OVCAR-4
HL-60 = test system: HL-60
DU-145 = test system: DU-145
SK-MEL-5 = test system: SK-MEL-5
786-0 = test system: 786-0
NCI-H522 = test system: NCI-H522
K562 = test system: K562
MCF7 = test system: MCF7
OVCAR-8 = test system: OVCAR-8
HOP-92 = test system: HOP-92
NCI-H226 = test system: NCI-H226
T47D = test system: T47D
MDA-MB-231 = test system: MDA-MB-231
UO-31 = test system: UO-31
ACHN = test system: ACHN
OVCAR-5 = test system: OVCAR-5
PC-3 = test system: PC-3
UACC-62 = test system: UACC-62
NCI/ADR-RES = test system: NCI/ADR-RES
SF-539 = test system: SF-539
SF-268 = test system: SF-268

How did the GI50 (HOP-62) turn out when COc1ccc([C@]23CCN(S(=O)(=O)c4ccc(C)cc4)[C@H]2[C@H](CO)C2(CC3)OCC(C)(C)CO2)cc1OC was run?
The GI50 was > 100 µM (inactive).

What about the GI50 (EKVX) of the same compound?
The GI50 was > 100 µM (inactive).

And the GI50 (RPMI-8226)?
Its GI50 is > 100 µM (inactive).

What about the GI50 (HCT-116) of the same compound?
The GI50 was > 100 µM (inactive).

And the GI50 (LOX IMVI)?
Its GI50 is > 100 µM (inactive).

And the GI50 (SW-620)?
The GI50 was > 100 µM (inactive).

And the GI50 (HCC 2998)?
The GI50 was > 100 µM (inactive).

And the GI50 (NCI-H23)?
The GI50 was > 100 µM (inactive).

What about the GI50 (Malme-3M) of the same compound?
The GI50 was > 100 µM (inactive).

What about the GI50 (M14) of the same compound?
The GI50 was > 100 µM (inactive).

What about the GI50 (OVCAR-3) of the same compound?
Its GI50 is > 100 µM (inactive).

What about the GI50 (SR) of the same compound?
Its GI50 is > 100 µM (inactive).

And the GI50 (IGROV-1)?
The GI50 was > 100 µM (inactive).

And the GI50 (CAKI-1)?
Its GI50 is > 100 µM (inactive).

And the GI50 (SF-295)?
The GI50 was > 100 µM (inactive).

What about the GI50 (MDA-N) of the same compound?
The GI50 was > 100 µM (inactive).

What about the GI50 (SK-MEL-2) of the same compound?
The GI50 was > 100 µM (inactive).

And the GI50 (COLO 205)?
Its GI50 is > 100 µM (inactive).

And the GI50 (SK-OV-3)?
The GI50 was > 100 µM (inactive).

And the GI50 (SNB-75)?
The GI50 was > 100 µM (inactive).

What about the GI50 (HT-29) of the same compound?
The GI50 was > 100 µM (inactive).

And the GI50 (A498)?
Its GI50 is > 100 µM (inactive).

What about the GI50 (MOLT-4) of the same compound?
The GI50 was > 100 µM (inactive).

What about the GI50 (A549) of the same compound?
Its GI50 is > 100 µM (inactive).

And the GI50 (SK-MEL-28)?
Its GI50 is > 100 µM (inactive).

What about the GI50 (BT-549) of the same compound?
Its GI50 is > 100 µM (inactive).

And the GI50 (TK-10)?
The GI50 was > 100 µM (inactive).

And the GI50 (U-251)?
The GI50 was > 100 µM (inactive).

And the GI50 (HCT-15)?
Its GI50 is greater than 100 µM.

What about the GI50 (UACC-257) of the same compound?
Its GI50 is > 100 µM (inactive).

What about the GI50 (CCRF-CEM) of the same compound?
Its GI50 is > 100 µM (inactive).

And the GI50 (RXF 393)?
Its GI50 is 98.6 µM (inactive).

And the GI50 (SN12C)?
The GI50 was > 100 µM (inactive).

And the GI50 (KM12)?
The GI50 was > 100 µM (inactive).

And the GI50 (NCI-H460)?
Its GI50 is > 100 µM (inactive).

What about the GI50 (MDA-MB-435) of the same compound?
The GI50 was > 100 µM (inactive).

And the GI50 (SNB-19)?
Its GI50 is > 100 µM (inactive).

What about the GI50 (OVCAR-4) of the same compound?
Its GI50 is > 100 µM (inactive).

What about the GI50 (HL-60) of the same compound?
The GI50 was > 100 µM (inactive).

What about the GI50 (DU-145) of the same compound?
Its GI50 is > 100 µM (inactive).

And the GI50 (SK-MEL-5)?
The GI50 was > 100 µM (inactive).

And the GI50 (786-0)?
The GI50 was > 100 µM (inactive).

What about the GI50 (NCI-H522) of the same compound?
Its GI50 is > 100 µM (inactive).

What about the GI50 (K562) of the same compound?
The GI50 was > 100 µM (inactive).

And the GI50 (MCF7)?
The GI50 was > 100 µM (inactive).

And the GI50 (OVCAR-8)?
Its GI50 is > 100 µM (inactive).

What about the GI50 (HOP-92) of the same compound?
Its GI50 is > 100 µM (inactive).

And the GI50 (NCI-H226)?
Its GI50 is > 100 µM (inactive).

What about the GI50 (T47D) of the same compound?
Its GI50 is > 100 µM (inactive).

What about the GI50 (MDA-MB-231) of the same compound?
The GI50 was > 100 µM (inactive).

And the GI50 (UO-31)?
The GI50 was > 100 µM (inactive).

What about the GI50 (ACHN) of the same compound?
Its GI50 is > 100 µM (inactive).

And the GI50 (OVCAR-5)?
Its GI50 is > 100 µM (inactive).

And the GI50 (PC-3)?
The GI50 was > 100 µM (inactive).

And the GI50 (UACC-62)?
The GI50 was > 100 µM (inactive).

And the GI50 (NCI/ADR-RES)?
Its GI50 is > 100 µM (inactive).

Cn1nc(-c2ccc(S(=O)(=O)N/C(=N/c3ccc(Cl)cc3)NN)s2)cc1C(F)(F)F was tested. Which GI50 (HOP-62) did it give?
Its GI50 is 16.5 µM (inactive).

What about the GI50 (EKVX) of the same compound?
The GI50 was 14.8 µM (inactive).

And the GI50 (RPMI-8226)?
Its GI50 is 21.3 µM (inactive).

And the GI50 (HCT-116)?
Its GI50 is 14.9 µM (inactive).

And the GI50 (LOX IMVI)?
Its GI50 is 18.3 µM (inactive).

And the GI50 (SW-620)?
The GI50 was 18.4 µM (inactive).

What about the GI50 (NCI-H23) of the same compound?
The GI50 was 20.3 µM (inactive).

And the GI50 (M14)?
The GI50 was 17.5 µM (inactive).

What about the GI50 (OVCAR-3) of the same compound?
The GI50 was 19.7 µM (inactive).

What about the GI50 (SR) of the same compound?
The GI50 was 17.4 µM (inactive).

And the GI50 (IGROV-1)?
Its GI50 is 19.3 µM (inactive).

And the GI50 (CAKI-1)?
The GI50 was 18.7 µM (inactive).

And the GI50 (SF-295)?
Its GI50 is 16.2 µM (inactive).

What about the GI50 (MDA-N) of the same compound?
The GI50 was 14.2 µM (inactive).

What about the GI50 (SK-MEL-2) of the same compound?
The GI50 was 19.2 µM (inactive).

What about the GI50 (COLO 205) of the same compound?
The GI50 was 17.1 µM (inactive).

What about the GI50 (SK-OV-3) of the same compound?
Its GI50 is 20.9 µM (inactive).

What about the GI50 (SNB-75) of the same compound?
Its GI50 is 16.3 µM (inactive).

And the GI50 (HT-29)?
Its GI50 is 16.2 µM (inactive).

And the GI50 (A498)?
Its GI50 is 16.4 µM (inactive).

And the GI50 (SF-539)?
The GI50 was 13.5 µM (inactive).

And the GI50 (MOLT-4)?
Its GI50 is 4.06 µM (inactive).

And the GI50 (A549)?
Its GI50 is 15 µM (inactive).

What about the GI50 (SK-MEL-28) of the same compound?
The GI50 was 18.3 µM (inactive).

And the GI50 (BT-549)?
Its GI50 is 17.8 µM (inactive).

What about the GI50 (SF-268) of the same compound?
The GI50 was 17.7 µM (inactive).

And the GI50 (TK-10)?
The GI50 was 19.1 µM (inactive).

And the GI50 (U-251)?
Its GI50 is 14.6 µM (inactive).

What about the GI50 (HCT-15) of the same compound?
Its GI50 is 21.8 µM.

And the GI50 (UACC-257)?
Its GI50 is 19.5 µM (inactive).

What about the GI50 (RXF 393) of the same compound?
Its GI50 is 11.1 µM (inactive).

And the GI50 (SN12C)?
Its GI50 is 15.3 µM (inactive).

What about the GI50 (KM12) of the same compound?
Its GI50 is 16.6 µM (inactive).

And the GI50 (NCI-H460)?
The GI50 was 19.9 µM (inactive).

What about the GI50 (SNB-19) of the same compound?
The GI50 was 16.5 µM (inactive).

What about the GI50 (OVCAR-4) of the same compound?
Its GI50 is 15.9 µM (inactive).

What about the GI50 (HL-60) of the same compound?
The GI50 was < 0.01 µM (active).

And the GI50 (DU-145)?
The GI50 was 17.1 µM (inactive).

What about the GI50 (SK-MEL-5) of the same compound?
The GI50 was 18.2 µM (inactive).

And the GI50 (786-0)?
The GI50 was 14.9 µM (inactive).

What about the GI50 (K562) of the same compound?
The GI50 was 14.1 µM (inactive).

What about the GI50 (MCF7) of the same compound?
Its GI50 is 21 µM (inactive).

What about the GI50 (OVCAR-8) of the same compound?
Its GI50 is 19.6 µM (inactive).

What about the GI50 (HOP-92) of the same compound?
Its GI50 is 20.4 µM (inactive).

And the GI50 (NCI-H226)?
Its GI50 is 13.4 µM (inactive).

And the GI50 (T47D)?
The GI50 was 13.3 µM (inactive).

And the GI50 (MDA-MB-231)?
The GI50 was 16.8 µM (inactive).

And the GI50 (UO-31)?
Its GI50 is 14.6 µM (inactive).

What about the GI50 (ACHN) of the same compound?
The GI50 was 18.4 µM (inactive).

And the GI50 (OVCAR-5)?
The GI50 was 15.9 µM (inactive).

And the GI50 (PC-3)?
Its GI50 is 16.9 µM (inactive).

And the GI50 (UACC-62)?
Its GI50 is 16.9 µM (inactive).

What about the GI50 (NCI/ADR-RES) of the same compound?
Its GI50 is 21.8 µM (inactive).
